Consider 29 molecules from patent US9591852B2, “Biofilm disruptive compositions” (McNeil-PPC, Inc., priority 2009, dated 2017).

Read-outs that look alike come from different tables or passages of the source.

For this test, the system named is 48-hour salivary biofilm. Put plainly: Biofilm disruption screening assay: 48-hour salivary biofilm on polystyrene peg plate, ATP bioluminescence of bacteria remaining. The format is cell-based. The note with it: for log RLU compound: treated twenty minutes, N=8. On the procedure: (§1) A 48-hour salivary biofilm was grown on a polystyrene peg plate substrate (96 pegs, N=8 per test group). The pegs were subsequently treated for twenty minutes with each of the long chain alcohols formulations described above, as well as the negative control. After treatment, viable bacteria remaining on the substrate were removed by sonication using a Ultrasonic processor XL by Misonix (Farmingdale, N.Y.), lysed with Celsis Luminex (Celsis Rapid Detection Rapiscreen (Celsis International PLC, Chicago)) and ATP from the bacteria were measured using a bioluminescence marker Celsis LuminATE (Celsis Rapid Detection Rapiscreen (Celsis International PLC, Chicago)). Data was reported in log RLU (relative light units), where decreasing log RLUs indicates fewer bacteria remaining on the substrate and in M-factor units where M-factor is the difference between the log RLU values of the compound tested and the negative control.
as §1, with “marker.” for “marker”
To determine the concentration dependence of biofilm disruptor activity, a series of formulations was prepared with cis-2-nonen-1-ol concentration ranging from 0.0005% to 0.1%. These formulations were tested against the negative control in the biofilm disruption screening assay described in Examples 1 and 2. Data was reported in log RLU (relative light units) where decreasing log RLUs indicates fewer bacteria remaining on the substrate and in M-factor units where M-factor is the difference between the log RLU values of the compound tested and the negative control. […]

Setting [1] is: 20 min, alcohol 0.05% (w/v), twenty minutes, difference between log RLU of compound and negative control, read-out: M-factor.
Setting [2] is: unsaturated long chain alcohol 0.05% (w/v) in water/ethanol/Pluronic F-127, decreasing log RLU = fewer bacteria remaining.
The mark [3] stands for this setting: 20 min, aldehyde 0.05% (w/v), twenty minutes, difference between log RLU of compound and negative control, read-out: M-factor.
Setting [4] is: unsaturated long chain aldehyde 0.05% (w/v) in water/ethanol/Pluronic F-127.

Regarding `C=CC(O)CCCCCCC` (stereo not drawn) [1-decen-3-ol], under setting [1], the log reduction at 0.05 % stood at 0.86. Besides, the “log RLU compound” value under setting [2] was determined as 4.46 log RLU.
The corresponding values for `C=CC(O)CCCCC` (stereo not drawn) [1-octen-3-ol] are 0.33 and 4.99 log RLU.
Consider `CC(C)=CCCC(C)C=O` (stereo not drawn) [2,6-dimethyl-5-hepten-1-al], for which the log reduction at 0.05 % under setting [3] stood at 0.21. Moreover, the “log RLU compound” value under setting [4] stood at 5.07 log RLU.
As to `C=CCCCCCCCCO` [9-decen-1-ol], under setting [1], the log reduction at 0.05 % was 0.97. Besides, the “log RLU compound” value under setting [2] was determined as 4.35 log RLU.
As to `CCC/C=C\CO` [cis-2-hexen-1-ol], under setting [1], the log reduction at 0.05 % was found to be 0.11. Further, the “log RLU compound” value under setting [2] came to 5.21 log RLU.
For `CCCCCC/C=C\CO` [cis-2-nonen-1-ol], the log reduction at 0.05 % was 0.76 under setting [1] and 0.82 (20 min, formulation B, cis-2-nonen-1-ol 0.05% (w/v), vs negative control log RLU 5.63, read-out: M-factor). The log reduction at 0.1 % (20 min, formulation A, cis-2-nonen-1-ol 0.1% (w/v), vs negative control log RLU 5.63, read-out: M-factor) is 0.82. The log reduction at 0.025 % (20 min, formulation C, cis-2-nonen-1-ol 0.025% (w/v), vs negative control log RLU 5.63, read-out: M-factor) worked out at 0.35. Where the note is “20 min, formulation D, cis-2-nonen-1-ol 0.01% (w/v), vs negative control log RLU 5.63, read-out: M-factor”, the log reduction at 0.01 % is 0.04. Besides, the log reduction at 0.005 % (20 min, formulation E, cis-2-nonen-1-ol 0.005% (w/v), vs negative control log RLU 5.63, read-out: M-factor) was -0.06. Besides, the log reduction at 0.001 % (20 min, formulation F, cis-2-nonen-1-ol 0.001% (w/v), vs negative control log RLU 5.63, read-out: M-factor) was -0.07. Further, under “20 min, formulation G, cis-2-nonen-1-ol 0.0005% (w/v), vs negative control log RLU 5.63, read-out: M-factor”, the log reduction at 0.0005 % is -0.09. The “log RLU” value (formulation A, cis-2-nonen-1-ol 0.1% (w/v)) came out at 4.81 log RLU; the “log RLU” value (formulation B, cis-2-nonen-1-ol 0.05% (w/v)) is listed as 4.82 log RLU; the “log RLU” value (formulation C, cis-2-nonen-1-ol 0.025% (w/v)) turned out to be 5.28 log RLU; the “log RLU” value (formulation D, cis-2-nonen-1-ol 0.01% (w/v)) is recorded as 5.59 log RLU; the “log RLU” value (formulation E, cis-2-nonen-1-ol 0.005% (w/v)) came out at 5.69 log RLU; the “log RLU” value (formulation F, cis-2-nonen-1-ol 0.001% (w/v)) is 5.70 log RLU. Moreover, for the setting “formulation G, cis-2-nonen-1-ol 0.0005% (w/v)”, the “log RLU” value stood at 5.72 log RLU. Besides, the “log RLU compound” value under setting [2] turned out to be 4.57 log RLU.
Turning to `CCC/C=C\CCO` [cis-3-hepten-1-ol], the log reduction at 0.05 % under setting [1] came out at 0.25. Further, the “log RLU compound” value under setting [2] is 5.07 log RLU.
`CC/C=C\CCO` [cis-3-hexen-1-ol]: the log reduction at 0.05 % under setting [1] turned out to be 0.06. Moreover, the “log RLU compound” value under setting [2] worked out at 5.22 log RLU.
The corresponding values for `CCCCC/C=C\CCO` [cis-3-nonen-1-ol] are 0.76 and 4.56 log RLU.
The corresponding values for `CCCCC/C=C\CCCO` [cis-4-decen-1-ol] are 0.62 and 4.71 log RLU.
Take `CCCCC/C=C\CCC=O` [cis-4-decenal]: the log reduction at 0.05 % under setting [3] was determined as 0.99. For the same molecule, under setting [4], the “log RLU compound” value was 4.59 log RLU.
The matching figures for `CC/C=C\CCC=O` [cis-4-hepten-1-al]: -0.04 and 5.14 log RLU.
Take `CC/C=C\CCCCO` [cis-5-octen-1-ol]: the log reduction at 0.05 % under setting [1] turned out to be 0.31. Moreover, the “log RLU compound” value under setting [2] is reported as 5.01 log RLU.
For `CC/C=C\CCCCCO` [cis-6-nonen-1-ol], the log reduction at 0.05 % under setting [1] worked out at 0.72. For the same molecule, under setting [2], the “log RLU compound” value is recorded as 4.60 log RLU.
With `CC/C=C\CCCCC=O` [cis-6-nonenal], the log reduction at 0.05 % under setting [3] was found to be 0.44. In addition, the “log RLU compound” value under setting [4] worked out at 4.84 log RLU.
In the case of `CC/C=C\CCCCCC=O` [cis-7-decenal], under setting [3], the log reduction at 0.05 % came to 0.33. Also, under setting [4], the “log RLU compound” value amounted to 5.25 log RLU.
As for `CCCCCCC/C=C/CO` [trans-2-decen-1-ol], under setting [1], the log reduction at 0.05 % came to 1.45. The “log RLU compound” value under setting [2] turned out to be 4.13 log RLU.
As to `CCCCCCC/C=C/C=O` [trans-2-decenal], the log reduction at 0.05 % under setting [3] is 0.95. Further, under setting [4], the “log RLU compound” value is listed as 4.63 log RLU.
For the molecule `CCCCCCCCC/C=C/CO` [trans-2-dodecen-1-ol], the log reduction at 0.05 % under setting [1] was 0.88. Further, the “log RLU compound” value under setting [2] was found to be 4.44 log RLU.
Turning to `CCCCCCCCC/C=C/C=O` [trans-2-dodecenal], under setting [3], the log reduction at 0.05 % was determined as 1. Under setting [4], the “log RLU compound” value is 4.58 log RLU.
The matching figures for `CCCC/C=C/C=O` [trans-2-heptenal]: 0.06 and 5.52 log RLU.
Regarding `CCC/C=C/CO` [trans-2-hexen-1-ol], under setting [1], the log reduction at 0.05 % was found to be 0.12. Besides, under setting [2], the “log RLU compound” value is 5.20 log RLU.
As to `CCC/C=C/C=O` [trans-2-hexenal], the log reduction at 0.05 % under setting [3] came to 0.19. Also, the “log RLU compound” value under setting [4] was determined as 5.39 log RLU.
`CCCCCC/C=C/CO` [trans-2-nonen-1-ol]: the log reduction at 0.05 % under setting [1] came out at 0.45. Further, under setting [2], the “log RLU compound” value is recorded as 4.83 log RLU.
As for `CCCCCC/C=C/C=O` [trans-2-nonenal], the log reduction at 0.05 % under setting [3] stood at 0.92. Also, the “log RLU compound” value under setting [4] is recorded as 4.66 log RLU.
Take `CCCCC/C=C/CO` [trans-2-octen-1-ol]: the log reduction at 0.05 % under setting [1] came out at 0.69. For the same molecule, the “log RLU compound” value under setting [2] was 4.89 log RLU.
Take `CCCCC/C=C/C=O` [trans-2-octenal]: the log reduction at 0.05 % under setting [3] was determined as 0.32. Also, the “log RLU compound” value under setting [4] is on record as 5.26 log RLU.
On to `CCCCCCCC/C=C/CO` [trans-2-undecen-1-ol], for which the log reduction at 0.05 % under setting [1] came to 0.56. For the same molecule, under setting [2], the “log RLU compound” value was found to be 4.72 log RLU.
On to `CCCCCCCC/C=C/C=O` [trans-2-undecenal], for which the log reduction at 0.05 % under setting [3] was 0.83. The “log RLU compound” value under setting [4] is 4.49 log RLU.
